Data on two compounds can be found in ChEMBL document CHEMBL4630901 (2021).

In assay [1] the target is Alpha-2A adrenergic receptor (Homo sapiens, UniProt P08913). In words: GPCRScan assay: inhibition of Alpha2A. Details: radioligand conc. used [nm] 1.0 – 3.0, parental cells stable MDCK.
The target of assay [2] is D(3) dopamine receptor (Homo sapiens) (UniProt P35462). The following applies: Compound concentration 10.0 uM.
Assay [3] deals with Histamine H3 receptor (Homo sapiens) (UniProt Q9Y5N1). The note with it: Compound concentration 10.0 uM.
Histamine H3 receptor (Homo sapiens), sequence (Q9Y5N1 whole entry): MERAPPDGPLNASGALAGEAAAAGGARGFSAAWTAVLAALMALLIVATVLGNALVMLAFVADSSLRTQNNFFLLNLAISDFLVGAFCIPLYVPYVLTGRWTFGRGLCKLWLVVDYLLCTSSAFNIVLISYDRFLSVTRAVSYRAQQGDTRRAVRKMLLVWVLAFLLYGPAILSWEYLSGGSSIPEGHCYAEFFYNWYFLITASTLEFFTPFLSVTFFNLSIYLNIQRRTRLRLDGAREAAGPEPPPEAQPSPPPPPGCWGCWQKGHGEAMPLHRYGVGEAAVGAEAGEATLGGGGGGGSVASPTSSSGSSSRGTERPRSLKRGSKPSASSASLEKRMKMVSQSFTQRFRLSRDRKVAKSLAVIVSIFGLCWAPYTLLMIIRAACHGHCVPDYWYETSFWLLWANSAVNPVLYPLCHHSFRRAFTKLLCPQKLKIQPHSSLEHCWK
The target of assay [4] is Adenosine Transporter (Cavia porcellus) (UniProt H0V4R7+H0UUG1+H0V3Z5). In words: Inhibition of Transporter, Adenosine at compound concentration of 10.0 uM in the Eurofins-Panlabs radioligand binding assay (Eurofins_assay_202000). The format is protein assay. Also on record: ligand concentration 0.5 nM, non-specific ligand with concentration 5 uM Nitrobenzylthioinosine, incubation time 30 min, incubation temperature 25 C. The following applies: Compound concentration 10.0 uM.

Assay [5] addresses B2 bradykinin receptor (Homo sapiens) (UniProt P30411). The following applies: Compound concentration 10.0 uM.
Assay [6] has as its target Progesterone receptor (Homo sapiens) (UniProt P06401). The following applies: Compound concentration 10.0 uM.
Assay [7] addresses Histamine H3 receptor (Homo sapiens) (UniProt Q9Y5N1). The following applies: Compound concentration 10.0 uM. This is another data set of the same source.
For assay [8], the target named is Type-1 angiotensin II receptor (Homo sapiens) (UniProt P30556). The note with it: Compound concentration 10.0 uM.
Type-1 angiotensin II receptor (Homo sapiens), sequence (P30556 whole entry): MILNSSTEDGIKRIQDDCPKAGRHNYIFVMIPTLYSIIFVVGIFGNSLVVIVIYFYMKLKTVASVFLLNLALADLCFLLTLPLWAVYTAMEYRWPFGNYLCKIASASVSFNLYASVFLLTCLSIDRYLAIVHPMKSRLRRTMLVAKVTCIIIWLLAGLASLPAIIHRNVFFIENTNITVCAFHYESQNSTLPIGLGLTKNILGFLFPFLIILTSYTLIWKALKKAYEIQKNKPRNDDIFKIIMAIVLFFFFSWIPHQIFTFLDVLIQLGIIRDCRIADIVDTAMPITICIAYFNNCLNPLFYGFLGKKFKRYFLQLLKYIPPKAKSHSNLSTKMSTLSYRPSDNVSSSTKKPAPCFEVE
The target in assay [9] is Prostaglandin F2-alpha receptor (Homo sapiens, UniProt P43088). In words: Prostanoid FP Eurofins-Panlabs radioligand binding assay. Also on record: ligand concentration 1 nM.
Prostaglandin F2-alpha receptor (Homo sapiens, UniProt P43088), sequence (P43088 whole entry): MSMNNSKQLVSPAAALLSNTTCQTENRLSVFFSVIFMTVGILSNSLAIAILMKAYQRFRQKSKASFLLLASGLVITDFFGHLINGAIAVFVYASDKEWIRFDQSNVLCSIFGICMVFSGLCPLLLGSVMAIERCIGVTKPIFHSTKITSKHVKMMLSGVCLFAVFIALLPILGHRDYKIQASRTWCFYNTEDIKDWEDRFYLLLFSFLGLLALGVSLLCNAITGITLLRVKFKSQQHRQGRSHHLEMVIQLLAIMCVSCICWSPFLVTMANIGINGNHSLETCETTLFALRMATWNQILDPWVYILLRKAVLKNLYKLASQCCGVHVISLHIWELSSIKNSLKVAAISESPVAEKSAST
Assay [10] deals with Prostaglandin E2 receptor EP2 subtype (Homo sapiens) (UniProt P43116). In words: Prostanoid EP2 Eurofins-Panlabs radioligand binding assay. Also on record: ligand concentration 4 nM.
Prostaglandin E2 receptor EP2 subtype (Homo sapiens), sequence (P43116 whole entry): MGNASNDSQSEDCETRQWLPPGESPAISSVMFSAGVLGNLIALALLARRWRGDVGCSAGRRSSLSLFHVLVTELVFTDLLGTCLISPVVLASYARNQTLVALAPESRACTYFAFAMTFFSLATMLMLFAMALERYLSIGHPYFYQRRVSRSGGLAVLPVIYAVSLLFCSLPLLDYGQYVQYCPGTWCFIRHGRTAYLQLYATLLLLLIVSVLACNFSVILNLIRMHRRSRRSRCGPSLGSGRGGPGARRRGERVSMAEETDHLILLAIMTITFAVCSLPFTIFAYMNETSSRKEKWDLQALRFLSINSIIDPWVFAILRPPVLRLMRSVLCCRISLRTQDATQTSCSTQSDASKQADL
Assay [11] concerns the target Type-2 angiotensin II receptor (Homo sapiens) (UniProt P50052). The following applies: Compound concentration 10.0 uM.
Assay [12] deals with Prostaglandin E2 receptor EP4 subtype (Homo sapiens) (UniProt P35408). In words: Inhibition of Prostanoid EP4 at 10 µM in the Eurofins-Panlabs radioligand binding assay (Eurofins_assay_268420). Details: ligand concentration 1 nM.
Prostaglandin E2 receptor EP4 subtype (Homo sapiens), sequence (P35408 whole entry): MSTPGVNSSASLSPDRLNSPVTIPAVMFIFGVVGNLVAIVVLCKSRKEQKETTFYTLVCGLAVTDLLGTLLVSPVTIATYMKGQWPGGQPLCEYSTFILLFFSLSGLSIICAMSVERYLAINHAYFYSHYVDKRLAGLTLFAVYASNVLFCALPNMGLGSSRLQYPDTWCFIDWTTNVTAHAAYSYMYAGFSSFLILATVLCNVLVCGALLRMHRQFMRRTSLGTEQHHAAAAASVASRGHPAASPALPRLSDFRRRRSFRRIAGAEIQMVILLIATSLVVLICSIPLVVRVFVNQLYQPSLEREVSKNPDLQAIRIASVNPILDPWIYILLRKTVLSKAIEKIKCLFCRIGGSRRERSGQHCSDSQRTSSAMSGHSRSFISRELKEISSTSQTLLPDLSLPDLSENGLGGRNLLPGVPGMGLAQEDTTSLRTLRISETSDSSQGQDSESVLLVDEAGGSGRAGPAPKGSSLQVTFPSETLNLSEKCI
Assay [13] concerns the target Motilin receptor (Homo sapiens) (UniProt O43193). The following applies: Compound concentration 10.0 uM.
For assay [14], the target named is Beta-3 adrenergic receptor (Homo sapiens) (UniProt P13945). The following applies: Compound concentration 10.0 uM.
The target in assay [15] is Histamine H1 receptor (Homo sapiens) (UniProt P35367). The note with it: Compound concentration 10.0 uM.
In assay [16] the target is Glutamate NMDA receptor (Rattus norvegicus) (UniProt P35439+Q00959+Q00960+Q00961+Q62645+Q8VHN2+Q9R1M7). The note with it: Compound concentration 10.0 uM.
Assay [17] has as its target 5-hydroxytryptamine receptor 2A (Homo sapiens) (UniProt P28223). The following applies: Compound concentration 10.0 uM.
In assay [18] the target is Androgen receptor (Homo sapiens) (UniProt P10275). The note with it: Compound concentration 10.0 uM.
Androgen receptor (Homo sapiens), sequence (P10275 whole entry): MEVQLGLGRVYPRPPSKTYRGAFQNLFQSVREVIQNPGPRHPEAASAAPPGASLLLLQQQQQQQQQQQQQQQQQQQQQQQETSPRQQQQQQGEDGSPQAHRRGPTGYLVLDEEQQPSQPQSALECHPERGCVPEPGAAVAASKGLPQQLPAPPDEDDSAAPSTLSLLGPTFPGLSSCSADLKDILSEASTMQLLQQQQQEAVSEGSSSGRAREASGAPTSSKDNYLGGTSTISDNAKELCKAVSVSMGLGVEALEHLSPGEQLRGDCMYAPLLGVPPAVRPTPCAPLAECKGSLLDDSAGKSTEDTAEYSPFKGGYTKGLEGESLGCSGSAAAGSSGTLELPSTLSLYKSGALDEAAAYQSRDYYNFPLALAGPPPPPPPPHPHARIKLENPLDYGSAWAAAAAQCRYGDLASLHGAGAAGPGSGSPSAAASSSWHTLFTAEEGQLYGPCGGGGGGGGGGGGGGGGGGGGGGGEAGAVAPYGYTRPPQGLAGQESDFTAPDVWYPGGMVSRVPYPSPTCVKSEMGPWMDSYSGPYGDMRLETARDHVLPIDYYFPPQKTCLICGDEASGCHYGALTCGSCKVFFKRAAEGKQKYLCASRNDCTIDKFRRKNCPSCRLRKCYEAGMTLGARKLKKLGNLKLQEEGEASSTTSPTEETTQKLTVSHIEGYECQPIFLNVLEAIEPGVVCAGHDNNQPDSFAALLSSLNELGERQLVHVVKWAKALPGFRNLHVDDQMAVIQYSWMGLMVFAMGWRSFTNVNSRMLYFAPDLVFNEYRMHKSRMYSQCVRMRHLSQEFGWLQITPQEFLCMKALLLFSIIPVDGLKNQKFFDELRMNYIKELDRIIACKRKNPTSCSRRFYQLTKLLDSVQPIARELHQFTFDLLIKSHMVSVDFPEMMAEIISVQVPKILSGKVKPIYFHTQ
Assay [19] concerns the target T1, Muscarinic acetylcholine receptor M1 (Homo sapiens) (UniProt P11229).
T1 sequence (whole entry): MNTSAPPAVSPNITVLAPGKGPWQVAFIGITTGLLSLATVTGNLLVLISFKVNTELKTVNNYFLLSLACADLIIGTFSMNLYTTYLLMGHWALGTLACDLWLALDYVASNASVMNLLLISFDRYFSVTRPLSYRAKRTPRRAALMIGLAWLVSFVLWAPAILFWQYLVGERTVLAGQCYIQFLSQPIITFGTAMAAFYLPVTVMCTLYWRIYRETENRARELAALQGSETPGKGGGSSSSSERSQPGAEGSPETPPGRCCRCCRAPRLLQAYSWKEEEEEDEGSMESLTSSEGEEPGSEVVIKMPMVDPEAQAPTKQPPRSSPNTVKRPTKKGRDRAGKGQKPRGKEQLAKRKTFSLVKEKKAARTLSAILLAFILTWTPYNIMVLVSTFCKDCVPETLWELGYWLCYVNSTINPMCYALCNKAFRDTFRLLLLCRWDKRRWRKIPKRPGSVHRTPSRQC
The following applies: Compound concentration 10.0 uM.

Assay [20] deals with Prostaglandin F2-alpha receptor (Mus musculus, UniProt P43117). In words: Bayer inhouse assay (mouse).
The target in assay [21] is T2, Muscarinic acetylcholine receptor M4 (Homo sapiens) (UniProt P08173).
T2 sequence (whole entry): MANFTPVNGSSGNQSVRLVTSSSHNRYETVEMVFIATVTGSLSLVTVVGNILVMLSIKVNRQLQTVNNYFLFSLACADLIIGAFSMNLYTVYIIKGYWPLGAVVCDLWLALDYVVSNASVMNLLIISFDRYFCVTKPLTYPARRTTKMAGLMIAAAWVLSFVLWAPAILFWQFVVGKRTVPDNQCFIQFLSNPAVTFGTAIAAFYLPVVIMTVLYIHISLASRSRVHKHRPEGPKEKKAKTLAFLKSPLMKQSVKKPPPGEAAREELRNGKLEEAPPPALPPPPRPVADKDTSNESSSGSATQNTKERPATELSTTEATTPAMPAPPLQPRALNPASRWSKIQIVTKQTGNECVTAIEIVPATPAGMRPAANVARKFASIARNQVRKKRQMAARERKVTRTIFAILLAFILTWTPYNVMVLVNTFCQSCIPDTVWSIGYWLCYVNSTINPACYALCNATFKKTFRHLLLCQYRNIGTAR
The note with it: Compound concentration 10.0 uM.

Assay [22] addresses Kappa-type opioid receptor (Homo sapiens) (UniProt P41145). The following applies: Compound concentration 10.0 uM.
Assay [23] concerns the target T3, Prostaglandin E2 receptor EP1 subtype (Homo sapiens) (UniProt P34995).
T3 sequence (whole entry): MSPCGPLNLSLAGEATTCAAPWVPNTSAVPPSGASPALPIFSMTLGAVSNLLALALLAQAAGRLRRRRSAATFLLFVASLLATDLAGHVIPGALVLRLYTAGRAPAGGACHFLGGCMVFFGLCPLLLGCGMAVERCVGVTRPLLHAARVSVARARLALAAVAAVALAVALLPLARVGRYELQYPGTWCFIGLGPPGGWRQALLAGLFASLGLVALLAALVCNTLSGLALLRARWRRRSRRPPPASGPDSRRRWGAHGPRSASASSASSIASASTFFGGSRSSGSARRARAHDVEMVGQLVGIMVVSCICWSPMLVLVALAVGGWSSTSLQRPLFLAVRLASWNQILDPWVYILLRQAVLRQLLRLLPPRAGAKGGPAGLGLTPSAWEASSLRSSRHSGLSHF
In words: Prostanoid EP1 Eurofins-Panlabs radioligand binding assay. Details: ligand concentration 1 nM.

The mark [24] stands for this setting: Compound concentration 0.001 uM.

In general, Ki refers to a measure of affinity in units of concentration, obtained from inhibition or displacement. One may read the inhibition as the change of the read-out against control, counted positive when it falls. As a reminder, the IC50 is the midpoint of a concentration-inhibition curve.

The structures appear in SMILES notation. The source made the active and inactive calls. The rule behind the calls is not given here.

5-hydroxytryptamine receptor 2A (Homo sapiens), sequence (P28223 whole entry): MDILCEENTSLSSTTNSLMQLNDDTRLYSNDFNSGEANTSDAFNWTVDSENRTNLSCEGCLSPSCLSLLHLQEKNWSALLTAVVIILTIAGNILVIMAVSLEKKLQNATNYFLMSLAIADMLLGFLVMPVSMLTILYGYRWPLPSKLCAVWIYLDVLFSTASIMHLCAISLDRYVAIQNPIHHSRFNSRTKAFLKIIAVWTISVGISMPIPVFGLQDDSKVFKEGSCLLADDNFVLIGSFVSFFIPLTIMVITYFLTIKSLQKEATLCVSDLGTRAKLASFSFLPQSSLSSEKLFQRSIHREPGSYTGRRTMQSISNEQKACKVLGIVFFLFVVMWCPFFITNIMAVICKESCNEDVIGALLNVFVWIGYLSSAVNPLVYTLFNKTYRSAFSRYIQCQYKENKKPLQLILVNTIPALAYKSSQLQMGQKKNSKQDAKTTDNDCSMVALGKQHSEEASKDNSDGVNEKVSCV
Type-2 angiotensin II receptor (Homo sapiens), sequence (P50052 whole entry): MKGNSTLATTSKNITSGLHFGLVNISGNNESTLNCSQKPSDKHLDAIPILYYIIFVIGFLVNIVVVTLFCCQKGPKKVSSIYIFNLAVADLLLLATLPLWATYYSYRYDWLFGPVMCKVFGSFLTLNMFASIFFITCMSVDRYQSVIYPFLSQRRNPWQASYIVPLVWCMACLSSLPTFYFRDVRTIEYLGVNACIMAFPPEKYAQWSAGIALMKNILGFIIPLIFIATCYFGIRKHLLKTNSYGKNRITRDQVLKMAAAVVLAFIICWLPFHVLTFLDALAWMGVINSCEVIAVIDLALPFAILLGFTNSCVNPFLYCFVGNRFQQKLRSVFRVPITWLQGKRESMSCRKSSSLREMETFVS
Alpha-2A adrenergic receptor, sequence (P08913 whole entry): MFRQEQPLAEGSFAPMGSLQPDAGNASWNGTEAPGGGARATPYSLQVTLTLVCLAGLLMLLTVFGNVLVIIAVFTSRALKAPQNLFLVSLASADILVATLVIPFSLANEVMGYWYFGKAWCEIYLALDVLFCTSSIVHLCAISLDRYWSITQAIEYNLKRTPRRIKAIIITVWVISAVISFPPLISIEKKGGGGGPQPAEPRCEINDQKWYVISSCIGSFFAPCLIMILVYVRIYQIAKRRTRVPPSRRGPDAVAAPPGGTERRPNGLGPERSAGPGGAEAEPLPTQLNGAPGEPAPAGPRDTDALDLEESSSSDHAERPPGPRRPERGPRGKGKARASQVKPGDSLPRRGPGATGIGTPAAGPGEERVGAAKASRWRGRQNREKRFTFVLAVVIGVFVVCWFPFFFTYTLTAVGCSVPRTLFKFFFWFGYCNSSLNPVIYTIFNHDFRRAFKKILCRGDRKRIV
Kappa-type opioid receptor (Homo sapiens), sequence (P41145 whole entry): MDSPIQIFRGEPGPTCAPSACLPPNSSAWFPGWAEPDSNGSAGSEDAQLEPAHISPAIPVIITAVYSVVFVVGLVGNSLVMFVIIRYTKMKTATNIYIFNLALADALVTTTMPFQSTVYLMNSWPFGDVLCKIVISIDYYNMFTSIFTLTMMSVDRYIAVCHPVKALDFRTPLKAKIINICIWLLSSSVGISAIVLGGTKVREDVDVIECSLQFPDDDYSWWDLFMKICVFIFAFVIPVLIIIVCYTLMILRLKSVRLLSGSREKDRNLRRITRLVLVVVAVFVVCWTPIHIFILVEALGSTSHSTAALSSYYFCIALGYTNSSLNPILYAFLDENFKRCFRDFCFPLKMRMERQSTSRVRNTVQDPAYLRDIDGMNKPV

Regarding `Cc1c(N2CCNCC2)nc2ccc(Br)cc2c1C(=O)NC[C@H](CCC(=O)O)c1ccccc1Cl` [BAY-403], in [1], the Ki amounted to 8.47 µM. Besides, the figures for the inhibition in assay [2] and in [3] were 3.81% and 16.9%, respectively.

On to `Cc1c(N2CCCC2)nc2ccc(Br)cc2c1C(=O)NC[C@H](CCC(=O)O)c1ccccc1Cl` [BAY-6672], for which the inhibition is 10% in assay [4]; -6% in assay [5]; 14% in [6]; -0% in [7]; 11% in [8]; 7% in assay [9] (setting [24]). Further, the inhibition in [9] (Compound concentration 0.01 uM) was 35%; in assay [9] (Compound concentration 0.1 uM), 79%; in assay [9] (Compound concentration 1.0 uM), 94%; in assay [9] (Compound concentration 10.0 uM) it was 97%; in assay [10] (setting [24]), 4%; in assay [10] (Compound concentration 0.01 uM), -2%. Further, the inhibition in [10] (Compound concentration 0.1 uM) is 3%; in assay [10] (Compound concentration 1.0 uM) it was 15%; in assay [10] (Compound concentration 10.0 uM) it was 4%; in [11], 2%; in assay [12] (setting [24]), -6%; in assay [12] (Compound concentration 0.01 uM), -1%. Also, the inhibition was 6% in assay [12] (Compound concentration 0.1 uM); 17% in assay [12] (Compound concentration 1.0 uM); 48% in [12] (Compound concentration 10.0 uM); 10% in assay [13]; 4% in [14]; 15% in assay [15]. Moreover, the inhibition in assay [16] was 7%; in assay [17], -7%; in [18], 3%; in assay [19], 9%; in [21] it was 6%; in assay [22], 15%. Moreover, the inhibition was 11% in assay [23] (setting [24]); -2% in assay [23] (Compound concentration 0.01 uM); 1% in assay [23] (Compound concentration 0.1 uM); -5% in assay [23] (Compound concentration 1.0 uM); 22% in assay [23] (Compound concentration 10.0 uM). In assay [20], the half-inhibitory concentration (IC50) was 0.005 µM (active).
